Tested on: GFP-LC3 puncta formation in PC12 cells
Assay: Quantification of autophagy GFP-LC3 puncta
Assay type: cell-based, rat
Conditions: fluorescent microscopy
Procedure: Quantification of autophagy GFP-LC3 Puncta. GFP-LC3 puncta formation was quantified as described previously. In brief, cells grown on coverslips in a 6-well plate were fixed in 4% paraformaldehyde for 20 minutes at room temperature and then rinsed with PBS. Slides were mounted with FluorSave™ mounting media (Calbiochem, San Diego, Calif.) and examined by fluorescence microscopy. The number of GFP-positive cells with GFP-LC3 puncta formation was examined under the Nikon ECLIPSE 80i microscope. Representative images were captured with CCD digital camera Spot RT3™ (Diagnostic Instruments, Inc., Melville, N.Y.). To quantify autophagy, the percentage of cells with punctate GFP-LC3 fluorescence was calculated by counting the number of the cells with punctate GFP-LC3 fluorescence in GFP-positive cells. A minimum of 150 cells from 3 randomly selected fields was scored.

CC1(C)CCC2(C(=O)O)C(O)CC3(C)C(=CCC4C5(C)CC(O)C(O)C(C)(CO)C5CCC43C)C2C1 (centres unmarked) [polygalacic acid] was tested, and the GFP-LC3 puncta formation was “no autophagy activity”.
In the case of CC1(C)CC[C@]2(C(=O)O)CCC3=C([C@@H](CCl)C[C@@H]4[C@@]5(C)C[C@H](O)[C@H](O)[C@@](C)(C(=O)O)[C@@H]5CC[C@@]34C)[C@@H]2C1 [senegenin], the GFP-LC3 puncta formation is reported as “no autophagy activity”.

Source: US9005677B2, “Autophagy enhancer for treatment of neurodegenerative diseases” (Macau University of Science and Technology, priority 2013, dated 2015)
